Structures are written as SMILES.
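Note: enzymatic activity of PDIA4 read as absorbance at 595 nm, inhibition given as percent decrease relative to vehicle-treated control.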

The target of this assay is T1, PDIA4 (Homo sapiens, UniProt P13667).
T1 sequence (P13667 21-645): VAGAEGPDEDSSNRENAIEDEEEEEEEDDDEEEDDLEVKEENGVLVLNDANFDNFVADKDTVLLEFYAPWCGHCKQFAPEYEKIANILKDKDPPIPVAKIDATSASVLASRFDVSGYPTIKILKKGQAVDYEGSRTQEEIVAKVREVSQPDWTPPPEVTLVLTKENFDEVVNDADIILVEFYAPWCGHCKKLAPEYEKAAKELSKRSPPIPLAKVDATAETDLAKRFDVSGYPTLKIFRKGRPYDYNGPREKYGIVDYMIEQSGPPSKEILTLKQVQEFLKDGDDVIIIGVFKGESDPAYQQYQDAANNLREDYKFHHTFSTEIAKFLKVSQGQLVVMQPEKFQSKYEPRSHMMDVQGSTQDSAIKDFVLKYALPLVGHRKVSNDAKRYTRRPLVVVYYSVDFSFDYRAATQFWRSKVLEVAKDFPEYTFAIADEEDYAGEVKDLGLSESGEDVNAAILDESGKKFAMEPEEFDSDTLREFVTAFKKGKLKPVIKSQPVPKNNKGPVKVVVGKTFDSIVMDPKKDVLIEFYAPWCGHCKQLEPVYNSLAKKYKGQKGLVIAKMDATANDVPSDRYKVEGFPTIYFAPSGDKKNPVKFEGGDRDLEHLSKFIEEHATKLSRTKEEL
As to the kind of experiment: biochemical.
Method: Recombinant PDI proteins PDIA4 (23 pM) was incubated with insulin (0.2 mM) and DTT (0.1 mM) in the presence of vehicle and compounds at the indicated doses for 30 min at 25° C. The mixture was, measured using a SpectraMax i3x reader at 595 nm based on the manufacturer's instructions (Molecular device, CA, USA). Inhibition of the enzymatic activity PDIA4 is calculated by the formula, 100%×(OD595 of vehicle−OD595 of CP)/(OD595 of vehicle) as published previously.
In the case of `C#CC(=O)Nc1cc(OC)c(OCCCN2C(=O)c3ccccc3C2=O)cc1C(=O)OC` [50b, methyl 5-(3-(1,3-dioxoisoindolin-2-yl)propoxy)-4-methoxy-2-propiolamidobenzoate], inhibition was half-maximal at 4.3 µM (IC50). This lies in the single-digit micromolar range.
Molecule `C#CC(=O)Nc1cc(OC)c(OCCCN(C(=O)C#C)C(=O)c2ccccc2F)cc1C(=O)OC` [58b, methyl 5-(3-(2-fluoro-N-propioloylbenzamido)propoxy)-4-methoxy-propiolamidobenzoate] had an IC50 of 4.2 µM.
Next, `C#CC(=O)Nc1cc(OC)c(OCCCN(C(=O)C#C)C(=O)c2ccc(F)cc2)cc1C(=O)OC` [58d, methyl 5-(3-(4-fluoro-N-propioloylbenzamido)propoxy)-4-methoxy-2-propiolamidobenzoate]: 2.4 µM; `C#CC(=O)Nc1cc(OC)c(OCCCN(C(=O)C#C)C(=O)c2cccc(OC)c2)cc1C(=O)OC` [58g]: 3.3 µM; `C#CC(=O)Nc1cc(OC)c(OCCCN(C(=O)C#C)C(=O)Cc2ccccc2)cc1C(=O)OC` [58i, methyl 4-methoxy-5-(3-(N-(2-phenylacetyl)propiolamido)propoxy)-2-propiolamidobenzoate]: 1.9 µM.
For `C#CC(=O)Nc1cc(OC)c(OCCCN(C(=O)C#C)C(=O)Cc2ccc(F)cc2)cc1C(=O)OC` [58l], the half-maximal inhibitory concentration (IC50) stood at 1.4 µM.
Turning to `C#CC(=O)Nc1cc(OC)c(OCCCN(C(=O)C#C)C(=O)Cc2cccc(OC)c2)cc1C(=O)OC` [58n, methyl 4-methoxy-5-(3-(N-(2-(3-methoxyphenyl)acetyl)propiolamido)propoxy)-2-propiolamidobenzoate], inhibition was half-maximal at 1.4 µM (IC50).
For `C#CC(=O)Nc1cc(OC)c(OCCCN(C(=O)C#C)C(=O)Cc2ccc(OC)cc2)cc1C(=O)OC` [58o, methyl 4-methoxy-5-(3-(N-(2-(4-methoxyphenyl)acetyl)propiolamido)propoxy)-2-propiolamidobenzoate] the value was 2.1 µM; for `C#CC(=O)Nc1cc(OC)c(OCCCN(C(=O)C#C)C(=O)Cc2cccc(Cl)c2)cc1C(=O)OC` [58r, methyl 5-(3-(N-(2-(3-chlorophenyl)acetyl)propiolamido)propoxy)-4-methoxy-2-propiolamidobenzoate], 1.6 µM.
`CC#CC#C/C=C1/C=CC(=O)O1` [C2, (Z)-5-(hexa-2,4-diyn-1-ylidene)furan-2(5H)-one] registered an IC50 of 96.5 µM.
For `C#CC(=O)N(c1ccc(OC)cc1OC)C(C(=O)NCC(=O)OCC)c1cccs1` (stereo not shown) [C5, ethyl (2-(N-(2,4-dimethoxyphenyl)propiolamido)-2-(thiophen-2-yl)acetyl)glycinate], it took 760 µM to reach half-maximal inhibition (IC50).
Next, `CC#CC#C/C=C1\C=CC2(OC=CC2OC(=O)C=C(C)C)O1` (stereo not shown) [C6, (E)-7-(hexa-2,4-diyn-1-ylidene)-1,6-dioxaspiro[4,4]nona-2,8-dien-4-yl 3-methylbut-2-enoate]: 753 µM; `OCC#CC(O)c1ccccc1` (stereo not shown) [C7, 1-phenylbut-2-yne-1,4-diol]: more than 1000 µM; `CC#CCNc1ccc(NC(C)=O)cc1` [C8, N-(4-(but-2-yn-1-ylamino)phenyl)acetamide]: more than 1000 µM.
In turn, `O=C(Cc1ccccc1)OCC#CC#CCOC(=O)Cc1ccccc1` [C9, hexa-2,4-diyne-1,6-diyl bis(2-phenylacetate)] came in with an IC50 of more than 1000 µM.
For `O=C(OCC#CC#CCOC(=O)c1ccccc1)c1ccccc1` [C10, hexa-2,4-diyne-1,6-diyl dibenzoate] the value was more than 1000 µM; for `C#CC(=O)Nc1ccc(C(=O)NCC(=O)O)cc1` [C11, (4-propiolamidobenzoyl)glycine], 27.6 µM; for `C#CC(=O)Nc1ccc(CC(=O)O)cc1` [C12, 2-(4-propiolamidophenyl)acetic acid], 92.1 µM.
For `C#CC(=O)Nc1ccc(O)c(C(=O)O)c1` [C14, 2-hydroxy-5-propiolamidobenzoic acid] the value was 55.7 µM; for `CC#CC#CC#CC#CCCC(O)CO` (stereo not shown) [CPD P2, cytopiloyne aglycone, reference compound], 168 µM.
As to `COC(=O)c1cc(OC)c(OC)cc1N` [compound 3, methyl 2-amino-4,5-dimethoxybenzoate], the IC50 was more than 1000 µM.
Next, `C#CC(=O)Nc1cc(OC)c(OC)cc1C(=O)OCC[Si](C)(C)C` [compound 7, 2-(trimethylsilyl)ethyl 4,5-dimethoxy-2-propiolamidobenzoate]: 78.7 µM.
Take `COc1cc(N)c(C(=O)O)cc1OC` [compound 9, 2-amino-4,5-dimethoxybenzoic acid]: the IC50 was more than 1000 µM.
For `C#CC(=O)OC(=O)c1cc(OC)c(OC)cc1N` [compound 10, 2-amino-4,5-dimethoxybenzoic propiolic anhydride] the value was 1.6 µM; for `C#CC(=O)OC(=O)c1cc(OCc2ccccc2)c(OC)cc1N` [compound 16, 2-amino-5-(benzyloxy)-4-methoxybenzoic propiolic anhydride], 13.3 µM.
For `COC(=O)c1cc(OC)c(OC)c(OC)c1N` [compound 19, methyl 2-amino-3,4,5-trimethoxybenzoate] the value was more than 1000 µM.
Next, `C#CC(=O)Nc1c(C(=O)OC)cc(OC)c(OC)c1OC` [compound 20, methyl 3,4,5-trimethoxy-2-propiolamidobenzoate]: 42.5 µM.
`COc1cc(C(=O)O)c(N)c(OC)c1OC` [compound 21, 2-amino-3,4,5-trimethoxybenzoic acid] registered an IC50 of more than 1000 µM.
For `C#CC(=O)OC(=O)c1cc(OC)c(OC)c(OC)c1N` [compound 22, 2-amino-3,4,5-trimethoxybenzoic propiolic anhydride] the value was 4.3 µM; for `C#CC(=O)Nc1cc(OCCC)c(OCCC)cc1C(=O)OC` [compound 29, methyl 2-propiolamido-4,5-dipropoxybenzoate], more than 300 µM; for `C#CC(=O)Nc1cc(OCCC)c(OCCC)cc1C(=O)OCCC` [compound 30, propyl 2-propiolamido-4,5-dipropoxybenzoate], more than 300 µM.
`C#CC(=O)Nc1cc(OC)c(OCCCN(C(=O)C#C)C(=O)c2ccccc2)cc1C(=O)O` [compound 40, 4-methoxy-2-propiolamido-5-(3-(N-propioloylbenzamido)propoxy)benzoic acid] displayed a half-maximal inhibitory concentration (IC50) of 3.9 µM.
Next, `C#CC(=O)Nc1cc(OC)c(OCCC)cc1C(=O)OCCC` [compound 43, propyl 4-methoxy-2-propiolamido-5-propoxybenzoate]: 431 µM; `CCCOc1cc(C(=O)O)c(N)cc1OC` [compound 44, 2-amino-4-methoxy-5-propoxybenzoic acid]: more than 1000 µM.
For the molecule `C#CC(=O)OC(=O)c1cc(OCCC)c(OC)cc1N` [compound 45, 2-amino-4-methoxy-5-propoxybenzoic propiolic anhydride], the IC50 was 1 µM.
Next, `COC(=O)c1cc(OCCCN)c(OC)cc1[N+](=O)[O-]` [compound 55, methyl 5-(3-aminopropoxy)-4-methoxy-2-nitrobenzoate]: more than 1000 µM.
Next, `C#CC(=O)Nc1cc(OC)c(OCCCNC(=O)OC(C)(C)C)cc1C(=O)OC` [compound 61, Methyl 5-(3-((tert-butoxycarbonyl)amino)propoxy)-4-methoxy-2-propiolamidobenzoate]: 4.7 µM.

As usually defined, the IC50 is the midpoint of a concentration-inhibition curve. A lower IC50 goes with greater potency.

The values are drawn from patent US12605353B2, “PDIA4 inhibitors and use thereof for inhibiting β-cell pathogenesis and treating diabetes” (Academia Sinica, priority 2019, dated 2026).
